Active and inactive are the calls of the source. The rule behind the calls is not given here.
How the values were obtained:
[1] = molecular target: T1, Neurotensin receptor type 2 (Rattus norvegicus, UniProt Q63384); assay: Displacement of [125I]neurotensin from rat NTS2 receptor expressed in CHO-K1 cells by competitive binding assay; type: cell-based
T1 sequence (Q63384 whole entry): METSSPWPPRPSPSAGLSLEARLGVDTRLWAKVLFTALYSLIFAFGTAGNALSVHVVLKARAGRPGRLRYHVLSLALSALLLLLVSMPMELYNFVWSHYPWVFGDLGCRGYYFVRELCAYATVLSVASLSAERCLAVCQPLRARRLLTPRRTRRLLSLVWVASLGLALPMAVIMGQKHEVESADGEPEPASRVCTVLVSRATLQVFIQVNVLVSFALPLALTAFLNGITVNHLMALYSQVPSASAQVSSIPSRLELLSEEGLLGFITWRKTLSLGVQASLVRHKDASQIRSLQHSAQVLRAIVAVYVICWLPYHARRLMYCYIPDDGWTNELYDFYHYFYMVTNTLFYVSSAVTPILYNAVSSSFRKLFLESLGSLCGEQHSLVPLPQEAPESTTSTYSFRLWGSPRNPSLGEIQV

[2] = molecular target: Neurotensin receptor type 1 (Rattus norvegicus, UniProt P20789); assay: Displacement of [125I]neurotensin from rat NTS1 receptor expressed in CHO-K1 cells by competitive binding assay; type: cell-based
Neurotensin receptor type 1, sequence (P20789 whole entry): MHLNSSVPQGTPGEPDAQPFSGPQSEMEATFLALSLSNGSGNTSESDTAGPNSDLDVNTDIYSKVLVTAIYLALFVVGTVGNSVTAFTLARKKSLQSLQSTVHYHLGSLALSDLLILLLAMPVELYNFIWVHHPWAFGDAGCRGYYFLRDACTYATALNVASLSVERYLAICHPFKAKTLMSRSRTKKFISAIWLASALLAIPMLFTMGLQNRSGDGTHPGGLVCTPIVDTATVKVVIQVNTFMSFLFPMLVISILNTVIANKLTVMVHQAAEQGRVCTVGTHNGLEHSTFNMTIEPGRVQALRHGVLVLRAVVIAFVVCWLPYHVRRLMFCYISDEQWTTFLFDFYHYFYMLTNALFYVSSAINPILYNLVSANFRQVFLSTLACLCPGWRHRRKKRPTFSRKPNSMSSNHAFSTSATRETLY

[3] = molecular target: T1, Neurotensin receptor type 2; assay: Agonist activity at rat NTS2 receptor expressed in CHO-K1 cells assessed as calcium mobilization by FLIPR assay; type: functional, cell-based
[4] = molecular target: T1, Neurotensin receptor type 2; assay: Antagonist activity at rat NTS2 receptor expressed in CHO-K1 cells assessed as inhibition of SR142948a-induced calcium mobilization by FLIPR assay; type: functional, cell-based
[5] = molecular target: Neurotensin receptor type 1 (Rattus norvegicus) (UniProt P20789); assay: Agonist activity at rat NTS1 receptor expressed in CHO-K1 cells assessed as calcium mobilization by FLIPR assay; type: functional, cell-based
Neurotensin receptor type 1 (Rattus norvegicus), sequence (P20789 whole entry): as above

[6] = molecular target: Neurotensin receptor type 1 (Rattus norvegicus) (UniProt P20789); assay: Antagonist activity at rat NTS1 receptor expressed in CHO-K1 cells assessed as inhibition of […]-induced calcium mobilization by FLIPR assay; type: functional, cell-based

Row | Ki [1] | Ki [2] | EC50 ([3]; read-out: EC50) | Activity [5] | inhibition [6] | SMILES | IC50 [4] | EC50 ([3]; cho-k1)
1 | 5.8 nM | 1.4 nM | 22 nM | – | – | COc1cccc(OC)c1-c1cc(C(=O)NC2(C(=O)O)C3CC4CC(C3)CC2C4)nn1-c1ccc(C(=O)N(C)CCCN(C)C)cc1C(C)C (stereo not drawn) | – | –
2 | 1500 nM | > 30000 nM | – | inactive | inactive | Cc1ccc(S(=O)(=O)Nc2ccc3c(ccn3CC(=O)N[C@@H](CC(C)C)C(=O)O)c2)cc1 | 3320 nM | Not Active

Row | SMILES | Ki [1] | Ki [2] | EC50 ([3]; read-out: EC50) | Activity [5] | inhibition [6] | IC50 [4] | EC50 ([3]; cho-k1)
3 | Cc1ccc(S(=O)(=O)Nc2ccc3c(c2)c(C(=O)C(F)(F)F)cn3CC(=O)N[C@@H](CC(C)C)C(=O)O)cc1 | 202 nM | > 30000 nM | – | – | – | 38 nM | Not Active

Reference: ChEMBL document CHEMBL3352657 (J Med Chem, 2014)
